Values quoted from earlier work, collected in patent US12016850B2, “Modified release pharmaceutical formulations comprising deferiprone” (Chiesi Farmaceutici S.p.A., priority 2022, dated 2024).

Details: background statement, species not given

Cc1c(O)c(=O)ccn1C [Deferiprone, 3-hydroxy-1,2-dimethylpyridin-4-one]
half-life: 2 to 3 h
